Assay results reported in publication PMC3711437, “Real-time detection of DNA topological changes with a fluorescently labeled cruciform” (Nucleic Acids Research, 2013).

Molecular target: T1, E. coli gyrase holoenzyme (GyrA and GyrB) (Escherichia coli, UniProt P0AES4+P0AES6)
T1 construct: His-tagged GyrA and GyrB expressed separately in E. coli BL21-CodonPlus(DE3)-RIL, tags cleaved with TEV protease, Ni-NTA and S200 purified; used as holoenzyme
Experiment: supercoiling, fluorescent cruciform extrusion, NCC screen
Format: biochemical
Description: supercoiling, fluorescent cruciform extrusion, NCC screen on E. coli gyrase holoenzyme (GyrA and GyrB)

T1 sequence (P0AES4 whole entry, one chain of several): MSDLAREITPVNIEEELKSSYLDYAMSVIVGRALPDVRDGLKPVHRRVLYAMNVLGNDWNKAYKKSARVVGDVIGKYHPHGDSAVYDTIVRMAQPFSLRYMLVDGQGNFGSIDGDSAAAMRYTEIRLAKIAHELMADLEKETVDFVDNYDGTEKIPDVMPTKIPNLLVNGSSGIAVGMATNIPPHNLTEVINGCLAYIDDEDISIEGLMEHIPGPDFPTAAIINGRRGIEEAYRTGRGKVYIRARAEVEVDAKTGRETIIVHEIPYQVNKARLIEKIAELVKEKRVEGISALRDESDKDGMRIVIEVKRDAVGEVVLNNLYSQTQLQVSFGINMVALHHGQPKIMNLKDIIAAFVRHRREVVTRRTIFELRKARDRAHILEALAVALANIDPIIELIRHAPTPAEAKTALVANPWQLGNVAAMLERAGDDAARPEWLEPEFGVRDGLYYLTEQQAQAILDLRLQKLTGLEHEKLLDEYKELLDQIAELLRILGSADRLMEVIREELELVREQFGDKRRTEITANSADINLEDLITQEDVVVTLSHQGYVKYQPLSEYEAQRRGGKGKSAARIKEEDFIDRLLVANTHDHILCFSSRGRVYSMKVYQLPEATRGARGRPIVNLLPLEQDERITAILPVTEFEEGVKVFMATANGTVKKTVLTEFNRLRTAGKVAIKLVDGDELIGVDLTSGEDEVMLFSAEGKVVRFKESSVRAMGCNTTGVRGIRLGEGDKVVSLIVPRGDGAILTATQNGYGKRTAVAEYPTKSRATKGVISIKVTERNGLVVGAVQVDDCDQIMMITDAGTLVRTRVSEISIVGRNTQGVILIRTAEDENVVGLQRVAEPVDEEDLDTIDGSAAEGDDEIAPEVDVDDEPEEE

Going from `CCN1CCN(c2cc3c(cc2F)c(=O)c(C(=O)O)cn3C2CC2)CC1` [Enrofloxacin] to `CCn1cc(C(=O)O)c(=O)c2cc(F)c(N3CCN(C)CC3)cc21` [Pefloxacin], the inhibition at 50 µM rises from 67% to 95%.

Compared with `CN1CCN(c2c(F)cc3c(=O)c(C(=O)O)cn4c3c2SCC4)CC1` [Rufloxacin], `NC1CCN(c2nc3c(cc2F)c(=O)c(C(=O)O)cn3-c2ccc(F)cc2F)C1` (stereo not shown) [Tosufloxacin] is higher in inhibition at 50 µM: 89% for the first, 96% for the second.
